Laboratory results taken from US7238679B2, “Heterocycles and uses thereof” (Ariad Pharmaceuticals, Inc., priority 2002, dated 2007).

Tests used:
MDA-468 tumor cell line = test: Conventional cell-based assay against the MDA-468 tumor cell line
Text: Cell-based methods for measuring antiproliferative activity are well known and can be used for comparative characterization of compounds of this invention. In general, cell proliferation and cell viability assays are designed to provide a detectable signal when cells are metabolically active. Compounds may be tested for antiproliferative activity by measuring any observed decrease in metabolic activity of the cells after exposure of the cells to compound. Commonly used methods include, for example, measurement of membrane integrity (as a measure of cell viability)(e.g. using trypan blue exclusion) or measurement of DNA synthesis (e.g. by measuring incorporation of BrdU or 3H-thymidine).
Some methods for assaying cell proliferation use a reagent that is converted into a detectable compound during cell proliferation. Particularly preferred compounds are tetrazolium salts and include without limitation MTT (3-(4, 5-dimethylthiazol-2-yl)-2,5-diphenyltetrazolium bromide; Sigma-Aldrich, St. Louis, Mo.), MTS (3-(4,5-dimethylthiazol-2-yl)-5-(3-carboxymethoxyphenyl)-2-(4-sulfophenyl)-2H-tetrazolium), XTT (2,3-bis(2-Methoxy4-nitro-5-sulfophenyl)-2H-tetrazolium-5-carboxanilide), INT, NBT, and NTV (Bernas et al. Biochim Biophys Acta 1451(1):73–81, 1999). Preferred assays utilizing tetrazolium salts detect cell proliferation by detecting the product of the enzymatic conversion of the tetrazolium salts into blue formazan derivatives, which are readily detected by spectroscopic methods (Mosman. J. Immunol. Methods. 65:55–63, 1983).
Generally, preferred methods for assaying cell proliferation involve incubating cells in a desired growth medium with and without the compounds to be tested. […] Cells are processed, and the optical density of the cells is determined to measure the amount of formazan derivatives. […]

Row | Compound | melting point | IC50 (MDA-468 tumor cell line)
1 | CCOP(C)(=O)c1cc2c(Nc3ccc(F)c(Cl)c3)ncnc2cc1OC (stereo not drawn) [Example 7, 4-[(3-Chloro-4-fluorophenyl)amino]-7-methoxy-6-(ethyl-methylphosphinate)-quinazoline] | 199 to 200 °C | < 50 µM
2 | COc1cc2ncnc(Nc3ccc(F)c(Cl)c3)c2cc1P(C)(C)=O [Example 3, 4-[(3-Chloro-4-fluorophenyl)amino]-7-methoxy-6-(dimethylphosphinoyl)-quinazoline] | 257 to 259 °C | < 50 µM
3 | CCOP(=O)(OCC)c1cc2c(Nc3ccc(F)c(Cl)c3)ncnc2cc1OC [Example 5, 4-[(3-Chloro-4-fluorophenyl)amino]-7-methoxy-6-(diethylphosphonate)-quinazoline] | 215 to 217 °C | < 50 µM
